Laboratory results taken from patent publication US20180280319A1, “COMPOUNDS AND COMPOSITIONS FOR TREATMENT OF BREAST CANCER” (UNIVERSITY OF THE SCIENCES, priority 2017, published 2018).
Entries after “also recorded” stand apart in the source; their conditions may differ.

Tests used:
BT-549 TNBC cell line = experiment: Caspase 3/7 activation in BT-549 cells; assay type: cell-based; settings: 10 μM, 4 hr
Excerpt: (§1) FIGS. 7A-7H illustrate the finding that similar death-inducing effects are observed in other triple negative cells lines BT-549 and Hs578T. […] FIG. 7D represents a graphical quantification of caspase3/7 activation by 3D in BT-549. […] FIG. 7H represents a graphical quantification of caspase3/7 activation by 3D in HS-578T.
(§2) In order to explore the broader effects of 3D in the killing of TNBC cells, the experiments reported in Example 2 were repeated in 2 additional cells lines BT-549 and Hs578T.

MDA-MB-231 cells [1] = experiment: ROS detection (Muse oxidative stress kit) in MDA-MB-231 cells; assay type: cell-based, human; settings: 10 μM, 4 hrs
Excerpt: (§3) FIG. 4B is a set of images of MDA-MB-231 (TNBC cells) co-cultured with MCF-10A (normal mammary cells) after exposure to DMSO control (left) as well as 3D (right). FIGS. 5A-5E illustrate the finding that 3D induces a rise in reactive oxygen species (ROS) inside TNBC cells and not normal healthy cells.
(§4) Manipulation of reactive oxygen species (ROS) levels is one potential mechanistic target for anti-cancer molecules because high levels of ROS can promote cell death. […] Levels of ROS were detected by assessing the conversion of a non-fluorescent compound (dihydroethidium) to its oxidized metabolite (ethidium bromide) in the presence of intracellularly accumulated ROS following 3D administration using a Muse oxidative stress kit.

HS-578T TNBC cell line = experiment: Caspase 3/7 activation in Hs578T cells; assay type: cell-based; settings: 10 μM, 4 hr
Excerpt: as §1, §2

MDA-MB-231 cells [2] = experiment: Caspase 3/7 activity assay in MDA-MB-231 cells; assay type: cell-based, human; settings: for caspase 3/7 positive cells: DMSO 6.4±1.1%, n=3
Protocol: To identify mechanisms involved in the apoptotic death induced by compound 3D the iodine group (3D) was substituted by a fluorine group (3C) and a caspase 3/7 activity assay kit was utilized, which detects downstream effector apoptosis-causing caspases to assess death of TNBC cells. […] Quantitatively, 49.5±8.3% of cells were caspase 3/7 positive when treated with compound 3D compared to only 6.4±1.1% in the DMSO control group p<0.005 (FIG. 3D).
Further substitution experiments were conducted, replacing the para iodine with chlorine or bromine, as well as experiments wherein the sulfone was removed. To help identify mechanisms involved in the apoptotic death induced by compound 3D, the iodine group was substituted with chlorine or bromine. A caspase 3/7 activity assay kit was used to detect downstream effector apoptosis-causing caspases to assess death of TNBC cells. […] Additionally, when a compound was generated lacking the sulfonyl group, all cytotoxic effects of 3D on TNBC cells was abolished.

MDA-MB-231 cells [3] = experiment: Colony formation of MDA-MB-231 cells with and without radiation; assay type: cell-based, human; settings: 2 Gray radiation dose
Protocol: FIG. 1A is a set of images illustrating colonies of MDA-MB-231 cells exposed to DMSO (control) and compound 3D (10 μM, 4 hrs).
FIG. 1B reports the results depicted in FIG. 1A as a bar graph.
Compound 3D was previously shown to radiosensitize ER-positive breast cancer and prostate cancer cells (U.S. Pat. No. 8,541,476). This compound was then tested to see if it would radiosensitize aggressive TNBC cells such as MDA-MB-231.

MDA-MB-231 cells [4] = experiment: Quantitative annexin V death assay (flow cytometry) in MDA-MB-231 cells; assay type: cell-based, human; settings: n=4-7; for total annexin V-positive cells: DMSO 13.5±2.2%; for live cell population: DMSO 86.4±2.2%
Protocol: To confirm what type of cell death was responsible for the observed activity, a quantitative annexin V death assay was performed to quantify the amount of necrosis (non-specific toxicity) vs apoptosis (programmed cell death) induced by compound 3D. […] Compound 3D decreased live cell population from 86.4±2.2% (DMSO) to 48.1±3.0% (3D: p<0.001) and increased total annexin V-positive cells from 13.5±2.2% (DMSO) to 51.4±3.1% (3D: p<0.001).

[5] = system: MCF-10A (normal mammary cells); experiment: Annexin V assay in normal MCF-10A mammary cells; assay type: cell-based; settings: normal MCF-10A cells, 10 μM, n=5
Excerpt: (§5) The effects of compound 3D on survival of MCF-10A (normal mammary cells) were thus examined.

[6] = system: ER-positive breast cancer cells; settings: U.S. Pat. No. 8,541,476; cited from earlier work
prostate cancer cells = settings: U.S. Pat. No. 8,541,476; cited from earlier work
[7] = system: MCF-10A cells co-cultured with MDA-MB-231 cells; experiment: Co-culture of MCF-10A and MDA-MB-231 cells, fluorescence microscopy; assay type: cell-based, human; settings: 1:1 MCF-10A (mcherry red) and MDA-MB-231 (GFP-green); 10 μM, 4 hrs; n=3
Protocol: To validate the selective nature of 3D towards cancer cells, normal human mammary cells were co-cultured (MCF-10A) with human TNBC cells (MDA-MB-231) in the same culture dish (FIG. 4B) and incubated with 3D to assess the compound's selectivity. This experiment was done by plating a 1:1 ratio of MCF-10A cells (mcherry red) and MDA-MB-231 cells (GFP-green) and challenging them with DMSO or 3D (10 μM) for 4 hrs as described in Example 2. Following the treatments, pictures were acquired at 20× using the EVOS-Fl microscope. […] This co-culture was repeated 3 separate times on different passages (n=3).

MDA-MB-231 cells [8] = experiment: Cell morphology under phase contrast microscope, MDA-MB-231 cells; assay type: cell-based, human
Excerpt: FIGS. 2B-2G are images of MDA-MB-231 cells treated with DMSO (control), NS-123 and 3D (FIGS. 2B, 2D and 2F) under a phase contrast microscope (10×) and apoptosis profiles for the respective images (FIGS. 2C, 2E and 2G) determined using flow cytometry.
To further investigate the type of cell death induced by treatment of TNBC cells with 3D, its activity was compared to the original parent radiosensitizing compound NS-123 (4-bromo-3-nitrophenyl propan-1-one). FIG. 2A depicts the chemical structures of both the parent NS-123 (left) and compound 3D (right) highlighting the substitution with iodide and sulfonyl moieties in 3D structure compared to a bromide and carbonyl in the original radiosensitizing NS-123.

H2AX (P-H2AX ser139) = experiment: Western blot of H2AX phosphorylation in MDA-MB-231 cells; assay type: cell-based, human; settings: 4 hr treatment
Excerpt: (§6) Effects of 3D on DNA damage in MDA-MB-231 cells was compared to a matching dose of DMSO vehicle.

ATM (P-ATM ser1981) = experiment: Western blot of ATM phosphorylation in MDA-MB-231 cells; assay type: cell-based, human; settings: 4 hr treatment
Excerpt: as §6

[9] = system: MCF-10A (normal mammary cells); experiment: Cell morphology of normal MCF-10A cells after treatment; assay type: cell-based; settings: 10 μM, 4 hrs
Excerpt: as §5

MCF-10A cells = experiment: ROS detection (Muse oxidative stress kit) in normal MCF-10A cells; assay type: cell-based, human; settings: 10 μM, 4 hrs, p=0.9
Excerpt: as §3, §4

O=[N+]([O-])c1ccccc1I [1-iodo-2-nitrobenzene, reference compound]
caspase 3/7 activation (BT-549 TNBC cell line): inactive
ROS accumulation in TNBC cells (MDA-MB-231 cells [1]): inactive
caspase 3/7 activation (HS-578T TNBC cell line): inactive

CCS(=O)(=O)c1ccc(F)c([N+](=O)[O-])c1 [Compound 3C, 4-(Ethylsulfonyl)-1-fluoro-2-nitrobenzene]
apoptosis / killing of TNBC cells by caspase 3/7 activation (MDA-MB-231 cells [2]): very low rates of apoptosis
caspase 3/7 positive cells (MDA-MB-231 cells [2]): 7.9±3.0%

CCS(=O)(=O)c1ccc(I)c([N+](=O)[O-])c1 [Compound 3D, 4-(Ethylsulfonyl)-1-iodo-2-nitrobenzene]
radiosensitizing effect on colony formation (MDA-MB-231 cells [3]): failed to enhance this action further; also recorded: no radiosensitizing effects
total annexin V-positive cells (MDA-MB-231 cells [4]): 51.4±3.1%
live cell population (MDA-MB-231 cells [4]): 48.1±3.0%
total apoptosis ([5]; DMSO 12.7±5.3%): 12.2±3.2%
cell viability ([5]; DMSO 85.6±5.9%): 86.9±3.3%
radiosensitization [6]: radiosensitize
caspase 3/7 activation (BT-549 TNBC cell line): increased caspase 3/7 activation; also recorded: induced an activated caspase-3/7 population
ROS accumulation in TNBC cells (MDA-MB-231 cells [1]): significantly raised the levels of ROS
increase in ROS accumulation compared to DMSO (MDA-MB-231 cells [1]; p=0.00005): ~3 fold
radiosensitization (prostate cancer cells): radiosensitize
selectivity of apoptotic death in co-culture [7]: apoptotic death selectively occurred in the green cells (TNBC) while the red cells (normal) remained healthy
cell appearance under phase contrast microscope (10×) (MDA-MB-231 cells [8]): rounded and unhealthy; also recorded: noticeably misshapen
total H2AX (H2AX (P-H2AX ser139)): increased slightly
phosphorylated levels of H2AX (P-H2AX ser139) (H2AX (P-H2AX ser139); vs DMSO): significant increase; also recorded: induction
caspase 3/7 activation (HS-578T TNBC cell line): increased caspase 3/7 activation
apoptosis / killing of TNBC cells by caspase 3/7 activation (MDA-MB-231 cells [2]): induced specific caspase 3/7 activation; also recorded: high rates of apoptosis
early apoptosis population (MDA-MB-231 cells [2]; DMSO 0.7±0.1%): 0.9±0.2%
caspase 3/7-positive cells in late apoptosis phase (MDA-MB-231 cells [2]; DMSO 5.8±1.0%): 47.4±8.5%
caspase 3/7 positive cells (MDA-MB-231 cells [2]): 49.5±8.3%
total ATM (ATM (P-ATM ser1981)): remains unchanged
phosphorylated levels of ATM (P-ATM ser1981) (ATM (P-ATM ser1981); vs DMSO): significant increase; also recorded: induction
effect on morphology / health of normal cells [9]: morphology remains intact; also recorded: no observable effect on the health of non-TNBC cells
ROS accumulation in normal cells (MCF-10A cells): lacking any significant effects; also recorded: no significant increase

CCC(=O)c1ccc(Br)c([N+](=O)[O-])c1 [NS-123, 4-bromo-3-nitrophenyl propan-1-one, reference compound]
total annexin V-positive cells (MDA-MB-231 cells [4]): 11.6±2.4%
live cell population (MDA-MB-231 cells [4]): 88.3±2.4%
cell appearance under phase contrast microscope (10×) (MDA-MB-231 cells [8]): normal healthy features
